Experimental data taken from PMC12860872, “Preclinical evaluation of DOTAGA.Glu.(FAPI)2 and DO3A.Glu.(FAPI)2 as theranostics with human dosimetry extrapolation to lutetium-177 and terbium-161 analogs” (European Journal of Nuclear Medicine and Molecular Imaging, 2025).
Several values for one entry are separate records, joined by “and”; a condition that tells them apart may be missing. Equal values may be shown once.

Molecular target: T1, FAP (Homo sapiens, UniProt Q12884)
T1 construct: the CAF cells overexpressing FAP were seeded at a density of 0.8-1 million cells per well; host or cells: hTERT PF179T prostate cancer-associated fibroblasts
T1 sequence (Q12884 1-760): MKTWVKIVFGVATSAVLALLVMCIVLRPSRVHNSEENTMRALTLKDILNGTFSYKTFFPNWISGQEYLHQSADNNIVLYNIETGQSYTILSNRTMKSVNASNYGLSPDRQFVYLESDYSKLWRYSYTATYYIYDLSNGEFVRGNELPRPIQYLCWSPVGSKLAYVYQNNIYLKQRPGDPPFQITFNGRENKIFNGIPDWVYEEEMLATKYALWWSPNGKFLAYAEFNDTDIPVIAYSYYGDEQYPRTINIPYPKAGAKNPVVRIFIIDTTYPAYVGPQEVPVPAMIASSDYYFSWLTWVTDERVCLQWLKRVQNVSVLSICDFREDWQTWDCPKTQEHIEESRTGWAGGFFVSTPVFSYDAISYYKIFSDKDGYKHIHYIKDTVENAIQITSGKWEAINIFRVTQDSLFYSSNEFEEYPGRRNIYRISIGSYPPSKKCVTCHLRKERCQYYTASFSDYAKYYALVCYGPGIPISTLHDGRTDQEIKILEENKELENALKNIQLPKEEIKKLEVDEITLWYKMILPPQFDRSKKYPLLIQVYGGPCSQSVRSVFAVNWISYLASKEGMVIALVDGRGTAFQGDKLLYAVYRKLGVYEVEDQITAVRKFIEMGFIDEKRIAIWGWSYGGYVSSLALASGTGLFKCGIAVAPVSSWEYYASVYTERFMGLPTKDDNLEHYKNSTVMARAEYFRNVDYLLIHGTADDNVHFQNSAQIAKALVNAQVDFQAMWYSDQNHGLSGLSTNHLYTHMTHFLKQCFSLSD
Test: Saturation binding on FAP+ CAFs
Conditions: for Kd: 0.1 to 10 nM radioligand
Method: For receptor saturation studies, FAP^+ CAFs were incubated with 0.1 to 10 nM of the radioligands. For internalization studies, approximately 2.5 pmol of the radioligands were added to CAFs followed by incubation for 15, 30, 60, 90, 120, 180 and 240 min for the ^68Ga-labeled or 30, 60, 120, 240 and 360 min for the ^177Lu-labeled radioligands at 37 °C, 5% CO2. For the externalization studies, approximately 2.5 pmol of the ^177Lu-labeled radioligands were added to CAFs followed by incubation for 2 h at 37 °C, 5% CO2. The amount of externalized activity was measured at 0, 10, 20, 30, 60, 120, 240, and 1440 min (Supplemental Data).
For receptor saturation analysis, the CAF cells overexpressing FAP were seeded at a density of 0.8-1 million cells per well in 6-well plates, pre-coated with BME (Cultrex Reduced Growth Factor Basement Membrane Extract, RGF BME, R&D System, Minneapolis, USA) to enhance cell attachment. The cells were incubated overnight with medium (EMEM supplemented and containing 10% FBS, 100 U/mL penicillin and 100 μg/mL streptomycin). The next day, the medium was removed and the cells were incubated for 30 minutes at 37 °C, with 0.8 mL of fresh medium. Afterwards, the plates were placed on ice for 30 minutes followed by incubation with increasing concentrations of ^68/natGa- and ^177/natLu-labelled DOTAGA.Glu.(FAPI)2 and DO3A.Glu.( FAPI)2 (0.1-10 nM final concentration in the wells). After the addition of the radioligands, the cells were incubated for 120 minutes at 4 °C. Non-specific binding was determined in the presence of UAMC1110 at a final concentration of 1 μM. After the completion of the incubation, the cells were washed twice with ice-cold PBS, followed by solubilization with 1 M NaOH. The cell-associated radioactivity was measured using a gamma-counter. Specific binding was plotted against the total molar concentration of the added radiotracer. The Kd values and the concentration of the radioligand required to saturate the receptors (Bmax) were determined by nonlinear regression using GraphPad (Prism 8 Graph Pad Software, San Diego, CA). For all the cell studies the values are normalized for 1x10^6 cells per well and all data are from two independent experiments with triplicates in each experiment.

[1] = listed as 177/natLu-DO3A.Glu.(FAPI)2
[2] = listed as 177/natLu-DOTAGA.Glu.(FAPI)2

Question: Which results are given for N#C[C@@H]1CC(F)(F)CN1C(=O)CNC(=O)c1ccnc2ccc(OCCCCNC(=O)CC[C@H](NC(=O)CN3CCN(CC(=O)[O-])CCN(CC(=O)[O-])CCN(CC(=O)[O-])CC3)C(=O)NCCCCOc3ccc4nccc(C(=O)NCC(=O)N5CC(F)(F)C[C@H]5C#N)c4c3)cc12.[177Lu+3] [[^177Lu]Lu-DO3A.Glu.(FAPI)2]?
Answer: Kd [1]: 0.7 nM and 0.72 nM; Bmax [1]: 0.4 ± 0.02 nM and 0.37 ± 0.02 nM

Question: What does the source list for N#C[C@@H]1CC(F)(F)CN1C(=O)CNC(=O)c1ccnc2ccc(OCCCCNC(=O)CC[C@H](NC(=O)CCC(C(=O)O)N3CCN(CC(=O)[O-])CCN(CC(=O)[O-])CCN(CC(=O)[O-])CC3)C(=O)NCCCCOc3ccc4nccc(C(=O)NCC(=O)N5CC(F)(F)C[C@H]5C#N)c4c3)cc12.[177Lu+3] (stereo partly shown) [[^177Lu]Lu-DOTAGA.Glu.(FAPI)2]?
Answer: Kd [2]: 0.7 nM and 0.68 nM; Bmax [2]: 0.4 ± 0.02 nM and 0.36 ± 0.02 nM
